Assay results reported in paper PMC8004991, “The Interaction of the Flavonoid Fisetin with Human Glutathione Transferase A1-1” (Metabolites, 2021).

Molecular target: T1, human glutathione transferase A1-1 (hGSTA1-1) (Homo sapiens, UniProt P08263)
T1 construct: gene GSTA1
T1 sequence (P08263 2-222): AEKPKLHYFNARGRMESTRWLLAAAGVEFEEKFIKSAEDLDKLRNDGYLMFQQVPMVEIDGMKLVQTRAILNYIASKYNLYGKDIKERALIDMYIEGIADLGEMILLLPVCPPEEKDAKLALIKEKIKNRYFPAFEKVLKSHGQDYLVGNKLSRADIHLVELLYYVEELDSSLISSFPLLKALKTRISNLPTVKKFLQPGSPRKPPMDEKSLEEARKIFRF
Assay: CDNB/GSH conjugation assay with purified recombinant hGSTA1-1; IC50 and steady-state inhibition kinetics (Ki […] vs GSH, […] vs CDNB)
Format: biochemical
Source text: Fisetin appears to be a strong inhibitor for hGSTA1-1

SMILES: O=c1c(O)c(-c2ccc(O)c(O)c2)oc2cc(O)ccc12 [fisetin]
- IC50: 1200 ± 100 nM
